SMILES strings stand for the structures.

Here are results for 24 compounds from patent US8680150B2, “Small molecule hematopoietic growth factor mimetic compounds that activate hematopoietic growth factor receptors” (Ligand Pharmaceuticals, Inc., priority 2009, dated 2014).

This assay deals with UT7/EPO Cell line. Briefly: Cell proliferation assay in UT7/EPO cell line (ViaLight Plus). It is filed as cell-based, human. Conditions: compound at 10 uM; efficacy relative to EPO (100%); UT7/EPO cells expressing endogenous EPO receptor, starved of EPO overnight; 72 hours at 37° C. The procedure:
The primary testing for the exemplified compounds was performed in UT7/EPO Cell line. UT7/EPO is human leukemia cell line, obtained from Dr. Norio Komatsu (Blood, Vol 82 (2), pp 456-464, 1993). These cells express endogenous EPO receptor and are dependant upon EPO for growth and proliferation. Briefly, the cells were starved of EPO overnight and plated in 96 or 384 well plates. The compounds were added to the cells at 10 uM concentration. The plates were then incubated at 37° C. for 72 hours. The proliferative effect of the compounds was measured by a commercially available kit from Lonza (ViaLight Plus).
In the case of `COc1ccc(O)c(/C=N/NC(=O)c2cc3cc(OC)ccc3[nH]2)c1` [Compound 172, 5-Methoxyindole-2-carboxyl(2-hydroxy-5-methoxybenzylidene)hydrazide], the “Activity (%)” value is reported as 9.8%. In the case of `COc1ccc(O)c(/C=N/NC(=O)COc2ccc3[nH]ccc3c2)c1` [Compound 173, 5-Indolyloxoacet(2-hydroxy-5-methoxybenzylidene)hydrazide] it was 12%; in that of `COc1ccc(O)c(/C=N/NC(=O)c2cc3cc(O)ccc3o2)c1` [Compound 174, 5-Hydroxybenzofuran-2-carboxyl(2-hydroxy-5-methoxybenzylidene)hydrazide], 19%. For `COc1ccc(O)c(/C=N/NC(=O)c2cc3cc(O)ccc3[nH]2)c1` [Compound 175, 5-Hydroxyindole-2-carboxyl(2-hydroxy-5-methoxybenzylidene)hydrazide], the “Activity (%)” value is listed as 4.3%. In the case of `COCc1cccc(/C=N/NC(=O)c2cc3cc(O)ccc3o2)c1` [Compound 176, 5-Hydroxybenzofuran-2-carboxyl(3-methoxymethylbenzylidene)hydrazide] it was 19%; in that of `CN(C)c1ccc(C(=O)N/N=C/c2cccc(N(C)C)c2)cc1` [Compound 177, 4-Dimethylaminobenz(3-dimethylaminobenzylidene)hydrazide], 9.1%. In the case of `CCNC(=O)/C=C/c1cccc(/C=N/NC(=O)c2ccc(N(C)C)cc2)c1` [Compound 179, 4-Dimethylaminobenz(2E-ethylaminocarboxyethenylbenzylidene)hydrazide], the “Activity (%)” value is listed as 4.3%. Turning to `CN(C)c1ccc(C(=O)N/N=C/c2ccc3c(Cl)c[nH]c3c2)cc1` [Compound 180, 4-Dimethylaminobenz(3-chloro-6-indolidene)hydrazide], the “Activity (%)” value came to 3.2%. For the compound `Cc1ccccc1/C=C/c1cccc(/C=N/NC(=O)c2ccc(N(C)C)cc2)c1` [Compound 181, 4-Dimethylaminobenz(2E-(2-methylphenyl)ethenylbenzylidene)hydrazide], the “Activity (%)” value came to 4.2%. In the case of `CN(C)c1ccc(C(=O)N/N=C/c2cccc(/C=C/c3cccc(Cl)c3)c2)cc1` [Compound 182, 4-Dimethylaminobenz(2E-(3-chlorophenyl)ethenylbenzylidene)hydrazide] it was 11%; in that of `CN(C)c1ccc(C(=O)N/N=C/c2cccc(COCc3ccccc3)c2)cc1` [Compound 184, 4-Dimethylaminobenz(3-benzyloxymethylbenzylidene)hydrazide], 21%. In the case of `CN(C)c1ccc(C(=O)N/N=C/c2cccc(/C=C/c3ccccc3Cl)c2)cc1` [Compound 185, 4-Dimethylaminobenz(2E-(2-chlorophenyl)ethenylbenzylidene)hydrazide] it was 16%; in that of `CN(C)c1ccc(C(=O)N/N=C/c2cccc(/C=C/c3ccc(Cl)cc3)c2)cc1` [Compound 186, 4-Dimethylaminobenz(2E-(4-chlorophenyl)ethenylbenzylidene)hydrazide], 9.6%.

With `COCc1cccc(/C=N/NC(=O)c2ccc(N(C)C)cc2)c1` [Compound 187, 4-Dimethylaminobenz(3-methoxymethylbenzylidene)hydrazide], the “Activity (%)” value stood at 17%. `Cc1ccccc1COCc1cccc(/C=N/NC(=O)c2ccc(N(C)C)cc2)c1` [Compound 188, 4-Dimethylaminobenz(3-(2-methylbenzyloxy)methylbenzylidene)hydrazide]: the “Activity (%)” value is 5.5%. In the case of `Cc1ccc(COCc2cccc(/C=N/NC(=O)c3ccc(N(C)C)cc3)c2)cc1` [Compound 189, 4-Dimethylaminobenz(3-(4-methylbenzyloxy)methylbenzylidene)hydrazide] it was 9.1%. In the case of `CN(C)c1ccc(C(=O)N/N=C/c2cccc(/C=N/OCc3ccccc3)c2)cc1` [Compound 190, 4-Dimethylaminobenz(3-benzyloxyiminomethylbenzylidene)hydrazide] it was 20%; in that of `O=C(N/N=C/c1cccc(/C=C/c2ccccc2Cl)c1)c1ccc(-n2ccnc2)cc1` [Compound 191, 4-(1-Imidazolyl)benz(2E-(2-chlorophenyl)ethenylbenzylidene)hydrazide], 6.2%; in that of `C=CCO/N=C/c1cccc(/C=N/NC(=O)c2ccc(N(C)C)cc2)c1` [Compound 192, 4-Dimethylaminobenz(3-allyloxyiminomethylbenzylidene)hydrazide], 5.3%. Take `COc1cccc(/C=N/NC(=O)c2ccc(-n3ccnc3)cc2)c1` [Compound 193, 4-(1-Imidazolyl)benz(3-methoxybenzylidene)hydrazide]: the “Activity (%)” value came to 7.3%.

For the compound `O=C(N/N=C/c1cccc(/C=N/OCc2ccccc2)c1)c1ccc(-n2ccnc2)cc1` [Compound 194, 4-(1-Imidazolyl)benz(3-benzyloxyiminomethylbenzylidene)hydrazide], the “Activity (%)” value worked out at 5.2%. In the case of `CN(C)c1ccc(C(=O)N/N=C/c2cccc(OCCO)c2)cc1` [Compound 195, 4-Dimethylaminobenz(3-(2-hydroxyethoxy)benzylidene)hydrazide] it was 7.3%; in that of `O=C(/C=C/c1ccc(-c2ccccc2)cc1)N/N=C/c1ccc(OCCO)cc1` [Compound 198, 2E-(4-Phenylphenyl)acryl(4-(2-hydroxyethoxy)benzylidene)hydrazide], 4.6%.

Take `COc1cccc(/C=N/NC(=O)c2ccc(NCCO)cc2)c1` [Compound 199, 4-(2-Hydroxyethylamino)benz(3-methoxybenzylidene)hydrazide]: the “Activity (%)” value is on record as 3.0%.
